Measurements reported in patent US20160046616A1, “NRF2 SMALL MOLECULE INHIBITORS FOR CANCER THERAPY” (THE JOHNS HOPKINS UNIVERSITY, priority 2013, published 2016).

Tests used:
[1] = system: A549 NRF2-ARE-Fluc stable cell line; assay: A549 Nrf2 assay: NRF2-ARE firefly luciferase reporter gene assay; type: cell-based; settings: Homo sapiens, read-out: Potency of inhibition, A549
How it was run: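 A549 cells (Keap1 loss-of-function, constitutive NRF2) stably carrying ARE-driven firefly luciferase; compound treatment 18–24 h at 37 °C, 0.46% DMSO final.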

[2] = system: H1437 NRF2-ARE-Fluc stable cell line; assay: H1437 Nrf2 assay: NRF2-ARE firefly luciferase reporter gene assay; type: cell-based; settings: Homo sapiens, NCI-H1437, H1437 NRF2-ARE-Fluc stable cell line; read-out: Potency of inhibition, H1437

Compound	IC50 [1]	IC50 [2]
Cc1ncccc1C(=O)N1CCc2cc(-c3nc(NC(=O)Cc4ccc5c(c4)OCO5)sc3C)ccc21 [Compound 139]	5 to 25 µM	< 5 µM
O=C(Nc1cccc(Cc2ccccc2)n1)c1ccc(-c2cccc([N+](=O)[O-])c2)o1 [Compound 142]	5 to 25 µM	> 25 µM
O=C(Nc1ncc(Cc2ccc(C(F)(F)F)cc2)s1)c1ncc(-c2ccccc2)[nH]1 [Compound 151]	> 25 µM	> 25 µM
Cc1onc(-c2ccccc2)c1C(=O)N1CCc2cc(-c3nc(NC(=O)Cc4ccc5c(c4)OCO5)sc3C)ccc21 [Compound 160]	> 25 µM	> 25 µM
O=C(Nc1cncc(Cc2ccccc2)c1)c1ccc(-c2cccc([N+](=O)[O-])c2)o1 [Compound 170]	5 to 25 µM	5 to 25 µM
O=C(Nc1ncc(Cc2ccc(C(F)(F)F)cc2)s1)c1ccn(-c2cccnc2)n1 [Compound 175]	5 to 25 µM	5 to 25 µM
O=C(Nc1ccnc(Cc2ccccc2)c1)c1ccc(-c2cccc([N+](=O)[O-])c2)o1 [Compound 177]	5 to 25 µM	5 to 25 µM
Cc1sc(NC(=O)Cc2ccc3c(c2)OCO3)nc1-c1ccc2c(c1)CCN2C(=O)CN(C)C [Compound 180]	5 to 25 µM	> 25 µM
Cc1cccc(Cn2ccc(C(=O)Nc3ncc(Cc4ccc(C(F)(F)F)cc4)s3)n2)c1 [Compound 189]	5 to 25 µM	< 5 µM
Cc1nccc(Cn2ccc(C(=O)Nc3ncc(Cc4ccc(C(F)(F)F)cc4)s3)n2)n1 [Compound 190]	5 to 25 µM	5 to 25 µM
O=C(Nc1ncc(Cc2ccc(C(F)(F)F)cc2)s1)c1ccn(Cc2ccccn2)n1 [Compound 192]	> 25 µM	> 25 µM
Cc1cc(C(=O)Nc2ncc(Cc3ccc(C(F)(F)F)cc3)s2)nn1CCN1CCOCC1 [Compound 194]	5 to 25 µM	5 to 25 µM
COc1ccc(CC(=O)Nc2nc(-c3ccc4c(c3)CCN4C(=O)c3ccnn3C)c(C)s2)cc1 [Compound 197]	< 5 µM	< 5 µM
CC(=O)N1CCN(S(=O)(=O)c2ccc(NC(=O)c3ccc(CN4CCc5ccccc5C4)cc3)cc2)CC1 [Compound 198]	< 5 µM	< 5 µM
CCOC(=O)N1CCN(S(=O)(=O)c2ccc(NC(=O)c3ccc(CN4CCc5ccccc5C4)cc3)cc2)CC1 [Compound 199]	< 5 µM	< 5 µM
CC(=O)N1CCN(Cc2ccc(C(=O)Nc3ccc(S(=O)(=O)N4CCOCC4)cc3)cc2)CC1 [Compound 201]	5 to 25 µM	5 to 25 µM
CCOC(=O)N1CCN(Cc2ccc(C(=O)Nc3ccc([S+](=O)([O-])N4CCOCC4)cc3)cc2)CC1 [Compound 202]	5 to 25 µM	5 to 25 µM
O=C(Nc1ccc(S(=O)(=O)N2CCOCC2)cc1)c1ccc(CN2CCN(c3ccccc3)CC2)cc1 [Compound 203]	< 5 µM	< 5 µM
O=C(Nc1ccc(S(=O)(=O)N2CCOCC2)cc1)c1ccc(CN2Cc3ccccc3C2)cc1 [Compound 204]	< 5 µM	< 5 µM
O=C(Nc1ccc(S(=O)(=O)N2CCOCC2)cc1)c1ccc(CN2CCC(c3ccccc3)CC2)cc1 [Compound 205]	< 5 µM	< 5 µM

Compound	IC50 [1]	IC50 [2]
CC1Cc2ccccc2CN1Cc1ccc(C(=O)Nc2ccc([S+](=O)([O-])N3CCOCC3)cc2)cc1 (stereo not drawn) [Compound 206]	< 5 µM	< 5 µM
O=C(Nc1ccc(S(=O)(=O)N2CCOCC2)cc1)c1ccc(CN2CCCC(c3ccccc3)C2)cc1 (stereo not drawn) [Compound 207]	5 to 25 µM	5 to 25 µM
COc1ccc(CC(=O)Nc2nc(-c3ccc4c(c3)CCN4C(=O)C3CC3C)c(C)s2)cc1 (stereo not drawn) [Compound 208]	< 5 µM	< 5 µM
Cc1ccccc1C(=O)N1CCc2cc(-c3nc(NC(=O)C(C)(C)C)sc3C)ccc21 [Compound 209]	5 to 25 µM	< 5 µM
Cc1ccccc1C(=O)N1CCc2cc(-c3nc(NC(=O)CCc4ccccc4)sc3C)ccc21 [Compound 210]	< 5 µM	5 to 25 µM
O=C(Nc1ccc(S(=O)(=O)N2CCOCC2)cc1)c1cccc(CN2CCc3ccccc3C2)c1 [Compound 211]	5 to 25 µM	5 to 25 µM
Cc1ccccc1C(=O)N1CCc2cc(-c3nc(NC(=O)CN4CCN(C(=O)C5CC5)CC4)sc3C)ccc21 [Compound 212]	< 5 µM	< 5 µM
Cc1ccc(Cc2cnc(NC(=O)c3ccn(-c4ccccc4)n3)s2)o1 [Compound 213]	5 to 25 µM	5 to 25 µM
Cc1ccccc1Cc1cnc(NC(=O)c2ccn(-c3ccccc3)n2)s1 [Compound 214]	5 to 25 µM	5 to 25 µM
O=C(Nc1ncc(Cc2ccccc2F)s1)c1ccn(-c2ccccc2)n1 [Compound 215]	< 5 µM	< 5 µM
O=C(Nc1ncc(Cc2ccccc2Cl)s1)c1ccn(-c2ccccc2)n1 [Compound 216]	5 to 25 µM	5 to 25 µM
Cc1cccc(Cc2cnc(NC(=O)c3ccn(-c4ccccc4)n3)s2)c1 [Compound 217]	5 to 25 µM	5 to 25 µM
O=C(Nc1ncc(Cc2cccc(F)c2)s1)c1ccn(-c2ccccc2)n1 [Compound 218]	5 to 25 µM	< 5 µM
COc1cccc(Cc2cnc(NC(=O)c3ccn(-c4ccccc4)n3)s2)c1 [Compound 219]	< 5 µM	5 to 25 µM
O=C(Nc1ncc(Cc2cccc(Cl)c2)s1)c1ccn(-c2ccccc2)n1 [Compound 220]	5 to 25 µM	< 5 µM
Cc1ccc(Cc2cnc(NC(=O)c3ccn(-c4ccccc4)n3)s2)cc1 [Compound 221]	5 to 25 µM	5 to 25 µM
O=C(Nc1ncc(Cc2ccc(F)cc2)s1)c1ccn(-c2ccccc2)n1 [Compound 222]	< 5 µM	< 5 µM
COc1ccc(Cc2cnc(NC(=O)c3ccn(-c4ccccc4)n3)s2)cc1 [Compound 223]	5 to 25 µM	5 to 25 µM
O=C(Nc1ncc(Cc2ccc(Cl)cc2)s1)c1ccn(-c2ccccc2)n1 [Compound 224]	< 5 µM	< 5 µM

The next lines start with the values.

IC50 [1]	IC50 [2]	Compound
< 5 µM	5 to 25 µM	Cc1ccccc1S(=O)(=O)N1CCc2cc(-c3nc(NC(=O)Cc4ccc(Cl)cc4)sc3C)ccc21 [Compound 135]
< 5 µM	< 5 µM	Cc1ccccc1S(=O)(=O)N1CCc2cc(-c3nc(NC(=O)Cc4ccncc4)sc3C)ccc21 [Compound 136]
< 5 µM	> 25 µM	O=C(Nc1cccc(Nc2ccccc2)c1)c1ccc(-c2cccc([N+](=O)[O-])c2)o1 [Compound 137]
< 5 µM	> 25 µM	Cc1sc(NC(=O)Cc2ccc3c(c2)OCO3)nc1-c1ccc2c(c1)CCN2C(=O)c1ccccc1C(C)C [Compound 138]
< 5 µM	< 5 µM	Cc1ccncc1C(=O)N1CCc2cc(-c3nc(NC(=O)Cc4ccc5c(c4)OCO5)sc3C)ccc21 [Compound 140]
< 5 µM	> 25 µM	Cc1cccnc1C(=O)N1CCc2cc(-c3nc(NC(=O)Cc4ccc5c(c4)OCO5)sc3C)ccc21 [Compound 141]
< 5 µM	> 25 µM	O=C(Nc1cc(Cc2ccccc2)ccn1)c1ccc(-c2cccc([N+](=O)[O-])c2)o1 [Compound 150]
< 5 µM	< 5 µM	Cc1nc(C(=O)N2CCc3cc(-c4nc(NC(=O)Cc5ccc6c(c5)OCO6)sc4C)ccc32)c(C)o1 [Compound 157]
< 5 µM	> 25 µM	Cc1sc(NC(=O)Cc2ccc3c(c2)OCO3)nc1-c1ccc2c(c1)CCN2C(=O)c1cnoc1C(C)C [Compound 158]
< 5 µM	< 5 µM	Cc1occc1C(=O)N1CCc2cc(-c3nc(NC(=O)Cc4ccc5c(c4)OCO5)sc3C)ccc21 [Compound 159]
< 5 µM	< 5 µM	Cc1sc(NC(=O)Cc2ccc3c(c2)OCO3)nc1-c1ccc2c(c1)CCN2C(=O)c1cncn1C [Compound 161]
< 5 µM	< 5 µM	CC1=C(C(=O)N2CCc3cc(-c4nc(NC(=O)Cc5ccc6c(c5)OCO6)sc4C)ccc32)OCCO1 [Compound 162]
< 5 µM	> 25 µM	O=C(Nc1ncc(Cc2ccc(C(F)(F)F)cc2)s1)c1cn(-c2ccccc2)cn1 [Compound 164]
< 5 µM	> 25 µM	Cc1ncoc1C(=O)N1CCc2cc(-c3nc(NC(=O)Cc4ccc5c(c4)OCO5)sc3C)ccc21 [Compound 181]
< 5 µM	< 5 µM	Cc1ccsc1C(=O)N1CCc2cc(-c3nc(NC(=O)Cc4ccc5c(c4)OCO5)sc3C)ccc21 [Compound 182]
< 5 µM	< 5 µM	Cc1noc(C)c1C(=O)N1CCc2cc(-c3nc(NC(=O)Cc4ccc5c(c4)OCO5)sc3C)ccc21 [Compound 183]
< 5 µM	< 5 µM	Cc1sc(NC(=O)Cc2ccc3c(c2)OCO3)nc1-c1ccc2c(c1)CCN2C(=O)c1cccn1C [Compound 184]
< 5 µM	< 5 µM	Cc1sc(NC(=O)Cc2ccc3c(c2)OCO3)nc1-c1ccc2c(c1)CCN2C(=O)c1ccnn1C [Compound 185]
< 5 µM	< 5 µM	Cc1sc(NC(=O)Cc2ccc3c(c2)OCO3)nc1-c1ccc2c(c1)CCN2C(=O)c1sccc1Cl [Compound 186]
< 5 µM	< 5 µM	Cc1sc(NC(=O)Cc2ccc3c(c2)OCO3)nc1-c1ccc2c(c1)CCN2C(=O)c1c(Cl)cnn1C [Compound 187]
< 5 µM	< 5 µM	Cc1cc(Cn2ccc(C(=O)Nc3ncc(Cc4ccc(C(F)(F)F)cc4)s3)n2)ccn1 [Compound 191]
< 5 µM	< 5 µM	Cc1cc(C(=O)Nc2ncc(Cc3ccc(C(F)(F)F)cc3)s2)nn1Cc1ccccn1 [Compound 193]
< 5 µM	5 to 25 µM	COc1ccc(CC(=O)Nc2nc(-c3ccc4c(c3)CCN4C(=O)C3CC3)c(C)s2)cc1 [Compound 195]
< 5 µM	< 5 µM	COc1ccc(CC(=O)Nc2nc(-c3ccc4c(c3)CCN4C(=O)c3cccnc3C)c(C)s2)cc1 [Compound 196]
